No end group written: not given here.
Assays:
[1] = system: Miltenberger Antibody Positive Panel; assay: Reactivity of modified RBCs against the Miltenberger Antibody Positive Panel; type: cell-based, human; parameters: key to score vs panel 15 TAP2 / score vs panel 4 T7202 / score vs panel 8 T5896 / score vs panel 2 T217 / score vs panel 3 T165 / score vs panel 14 TAP1 / score vs panel 10 Mia / score vs panel 11 Mur / score vs panel 12 Gam / score vs panel 6 T6025 / score vs panel 7 T8445 / score vs panel 9 MIII / score vs panel 13 BoxH / reactivity with Panel Serum #7 (T8445) / agglutination score, Panel Serum #7 (T8445): 0 or ‘−’ no agglutination; 0 or ‘−’ no agglutination; 1+ or 3=very weak agglutination; 1+ or 3=very weak agglutination; 2+ or 5=weak agglutination; 2+ or 5=weak agglutination; 3+ or 8=moderate strong agglutination; 3+ or 8=moderate strong agglutination; 4+ or 10/12=strong agglutination; 4+ or 10/12=strong agglutination; 4+ or 10/12=strong agglutination; conditions: for agglutination score, Panel Serum #7 (T8445): cells modified at 50 μg/ml, 2 hour 37° C., BioVue AHG cards; for reactivity with Panel Serum #7 (T8445): construct 50 μg/ml (2 hours, 37° C.)
Experimental: Red blood cells are modified by mixing 1 part by volume of washed packed red blood cells with 1 part by volume of peptide-lipid construct dispersed at a concentration of 10 to 1000 pg/ml in cell media (Celpresol™).
The suspensions are either: • 1. incubated for 2 hours at 37° C. before being washed and suspended in a cell medium for serological analysis at a concentration of 0.8 to 3% (Method 1); or • 2. incubated for 3 to 4 hours at room temperature (circa 25° C.) followed by 18 hours at 4° C. before being washed and suspended in a cell medium for serological analysis at a concentration of 0.8 to 3% (Method 2).
Serological reactions are graded or scored by either of two established systems (0 or ‘−’ no agglutination, 1+ or 3=very weak agglutination, 2+ or 5=weak agglutination, 3+ or 8=moderate strong agglutination, 4+ or 10/12=strong agglutination)
Serological platforms used are Tube (addition of reagents and reactants into plastic or glass serology tubes and after appropriate incubations, washing and centrifugation observing reactions macroscopically by eye and a 10× magnification eyepiece and scoring) and BioVue™ (addition of reactants into cassettes containing beads (including some reactants) and after appropriate incubations and centrifugation observing the reaction patterns trapped within the Gel matrix). BioVue is the serological column agglutination platform of Ortho-Clinical Diagnostics. Diamed is the serological column agglutination platform of Diamed AG.

antibody negative serums = assay: False positive reactions of modified RBCs with antibody negative serums/plasma; type: cell-based, human; parameters: key to Reaction score BioVue AHG, PAC samples 1-46, 49, 50, 52, 53 / Reaction score BioVue AHG, PAC sample 47 / Reaction score BioVue AHG, PAC sample 48 / Reaction score BioVue AHG, PAC sample 51 / agglutination score, T series serum 2 / agglutination score, T series serum 42 / agglutination score, T series serum 63 / agglutination score, T series serum 62 / agglutination score, T series serum 7 / agglutination score, T series serum 20 / agglutination score, T series serum 48 / agglutination score, T series serum 22 / agglutination score, T series serum 39 / agglutination score, T series serum 23 / agglutination score, T series serum 30 / agglutination score, T series serum 4 / agglutination score, T series serum 31 / agglutination score, T series serum 44 / agglutination score, T series serum 61 / agglutination score, T series serum 18 / agglutination score, T series serum 21 / agglutination score, T series serum 28 / agglutination score, T series serum 55 / agglutination score, false positive serum T18 / agglutination score, false positive serum T21 / agglutination score, false positive serum T28 / agglutination score, false positive serum T55 / agglutination score, false positive serum T78 / agglutination score, false positive serum T92: 0 or ‘−’ no agglutination; 0 or ‘−’ no agglutination; 1+ or 3=very weak agglutination; 1+ or 3=very weak agglutination; 2+ or 5=weak agglutination; 2+ or 5=weak agglutination; 3+ or 8=moderate strong agglutination; 3+ or 8=moderate strong agglutination; 4+ or 10/12=strong agglutination; 4+ or 10/12=strong agglutination; 4+ or 10/12=strong agglutination; conditions: BioVue AHG cards
[2] = cells modified at 50 μg/ml, 2 hour 37° C.
[3] = larger series = 102, cells modified at 50 μg/ml, 2 hour 37° C.

Substance	score vs panel 2 T217 ([1]; Table 9, construct 100 μg/ml)	score vs panel 3 T165 ([1]; Table 9, construct 100 μg/ml)	score vs panel 4 T7202 ([1]; Table 9, construct 100 μg/ml)	score vs panel 6 T6025 ([1]; Table 9, construct 100 μg/ml)	score vs panel 7 T8445 ([1]; Table 9, construct 100 μg/ml)	score vs panel 8 T5896 ([1]; Table 9, construct 100 μg/ml)	score vs panel 9 MIII ([1]; Table 9, construct 100 μg/ml)	score vs panel 10 Mia ([1]; Table 9, construct 100 μg/ml)	score vs panel 11 Mur ([1]; Table 9, construct 100 μg/ml)	score vs panel 12 Gam ([1]; Table 9, construct 100 μg/ml)	score vs panel 2 T217 ([1]; Table 9, construct 50 μg/ml)	score vs panel 4 T7202 ([1]; Table 9, construct 50 μg/ml)	score vs panel 7 T8445 ([1]; Table 9, construct 50 μg/ml)	score vs panel 8 T5896 ([1]; Table 9, construct 50 μg/ml)	score vs panel 15 TAP2 ([1]; Table 9, construct 50 μg/ml)	agglutination score, Panel Serum #7 (T8445) [1]	reactivity with Panel Serum #7 (T8445) [1]	other results
M18: DOPE peptide-lipid construct: Mur peptide PAHTANEV, leader c, spacer CMG(2) (PAHTANEVC; also: DOPE peptide-lipid construct via leader Cys, spacer CMG(2))	0	10	0	10	8	0	0	0	0	0	–	–	–	–	–	–	–	–
M27: DOPE peptide-lipid construct: Mur peptide TYPAHTAN, leader c, spacer CMG(2) (TYPAHTANC; also: DOPE peptide-lipid construct via leader Cys, spacer CMG(2))	–	–	–	–	–	–	–	–	–	–	0	10	0	0	0	–	–	–
M30: DOPE peptide-lipid construct: Mur peptide DTYPAHTANE, leader c, spacer CMG(2) (DTYPAHTANEC; also: DOPE peptide-lipid construct via leader Cys, spacer CMG(2))	–	–	–	–	–	–	–	–	–	–	0	10	8	0	8	8	8	% positive (antibody negative serums; T series reactives (n = 58)): 9%; agglutination score, T series serum 2 (antibody negative serums; [2]): 10; agglutination score, T series serum 4 (antibody negative serums; [2]): 8; agglutination score, T series serum 7 (antibody negative serums; [2]): 0; agglutination score, T series serum 18 (antibody negative serums; [2]): 0; agglutination score, T series serum 20 (antibody negative serums; [2]): 0; agglutination score, T series serum 21 (antibody negative serums; [2]): 0; agglutination score, T series serum 22 (antibody negative serums; [2]): 0; agglutination score, T series serum 23 (antibody negative serums; [2]): 0; agglutination score, T series serum 28 (antibody negative serums; [2]): 0; agglutination score, T series serum 30 (antibody negative serums; [2]): 0; agglutination score, T series serum 31 (antibody negative serums; [2]): 8; agglutination score, T series serum 39 (antibody negative serums; [2]): 0; agglutination score, T series serum 42 (antibody negative serums; [2]): 0; agglutination score, T series serum 44 (antibody negative serums; [2]): 10; agglutination score, T series serum 48 (antibody negative serums; [2]): 0; agglutination score, T series serum 55 (antibody negative serums; [2]): 0; agglutination score, T series serum 61 (antibody negative serums; [2]): 10; agglutination score, T series serum 62 (antibody negative serums; [2]): 0; agglutination score, T series serum 63 (antibody negative serums; [2]): 0
M14: DOPE peptide-lipid construct: Mur peptide DTYPAHTANEVSE, leader c, spacer CMG(2) (DTYPAHTANEVSEC; also: DOPE peptide-lipid construct via leader Cys, spacer CMG(2))	3	10	5	10	5	0	0	0	0	–	0	3	8	0	–	–	–	score vs panel 2 T217 ([1]; Table 9, construct 10 μg/ml): 0; score vs panel 3 T165 ([1]; Table 9, construct 10 μg/ml): 10; score vs panel 4 T7202 ([1]; Table 9, construct 10 μg/ml): 0; score vs panel 6 T6025 ([1]; Table 9, construct 10 μg/ml): 8; score vs panel 7 T8445 ([1]; Table 9, construct 10 μg/ml): 5; score vs panel 8 T5896 ([1]; Table 9, construct 10 μg/ml): 0; score vs panel 9 MIII ([1]; Table 9, construct 10 μg/ml): 0; score vs panel 10 Mia ([1]; Table 9, construct 10 μg/ml): 0; score vs panel 11 Mur ([1]; Table 9, construct 10 μg/ml): 0; score vs panel 13 BoxH ([1]; Table 9, construct 10 μg/ml): 0; score vs panel 3 T165 ([1]; Table 9, construct 50 μg/ml): 10; score vs panel 6 T6025 ([1]; Table 9, construct 50 μg/ml): 5; score vs panel 9 MIII ([1]; Table 9, construct 50 μg/ml): 0; score vs panel 10 Mia ([1]; Table 9, construct 50 μg/ml): 0; score vs panel 11 Mur ([1]; Table 9, construct 50 μg/ml): 0; score vs panel 13 BoxH ([1]; Table 9, construct 100 μg/ml): 0
M29: DOPE peptide-lipid construct: Mur peptide PAHTANEVS, leader c, spacer CMG(2) (PAHTANEVSC; also: DOPE peptide-lipid construct via leader Cys, spacer CMG(2))	–	–	–	–	–	–	–	–	–	–	0	10	–	0	8	8	8	agglutination score, false positive serum T28 (antibody negative serums; [3]): 5; agglutination score, false positive serum T92 (antibody negative serums; [3]): 8
M19: DOPE peptide-lipid construct: Mur peptide PAHTANEV, leader c, spacer CMG(2) (PAHTANEVC; also: DOPE peptide-lipid construct via leader Cys, spacer CMG(2))	0	10	0	8	10	3	0	0	0	0	–	–	–	–	–	8	8	agglutination score, false positive serum T55 (antibody negative serums; [3]): 12
M31: DOPE peptide-lipid construct: Mur peptide YPAHTANEVS, leader c, spacer CMG(2) (YPAHTANEVSC; also: DOPE peptide-lipid construct via leader Cys, spacer CMG(2))	–	–	–	–	–	–	–	–	–	–	0	10	8	0	0	8	8	agglutination score, false positive serum T21 (antibody negative serums; [3]): 10; agglutination score, false positive serum T28 (antibody negative serums; [3]): 12; agglutination score, false positive serum T78 (antibody negative serums; [3]): 8; agglutination score, false positive serum T92 (antibody negative serums; [3]): 12
M16: DOPE peptide-lipid construct: Mur peptide TYPAHTANEV, leader c, spacer PEG (TYPAHTANEVC; also: DOPE peptide-lipid construct via leader Cys, spacer PEG)	0	10	5	5	12	0	0	0	0	0	–	–	–	–	–	–	–	score vs panel 13 BoxH ([1]; Table 9, construct 100 μg/ml): 0
M21: DOPE peptide-lipid construct: MUTK peptide SQTNDKHKRD, leader c, spacer CMG(2) (SQTNDKHKRDC; also: DOPE peptide-lipid construct via leader Cys, spacer CMG(2))	–	–	–	–	–	–	–	–	–	–	–	–	–	–	–	–	–	score vs panel 2 T217 ([1]; Table 8, construct 200 μg/ml): 0; score vs panel 3 T165 ([1]; Table 8, construct 200 μg/ml): 8; score vs panel 4 T7202 ([1]; Table 8, construct 200 μg/ml): 0; score vs panel 6 T6025 ([1]; Table 8, construct 200 μg/ml): 8; score vs panel 7 T8445 ([1]; Table 8, construct 200 μg/ml): 0; score vs panel 8 T5896 ([1]; Table 8, construct 200 μg/ml): 0; score vs panel 9 MIII ([1]; Table 8, construct 200 μg/ml): 0; score vs panel 10 Mia ([1]; Table 8, construct 200 μg/ml): 0; score vs panel 11 Mur ([1]; Table 8, construct 200 μg/ml): 0; score vs panel 12 Gam ([1]; Table 8, construct 200 μg/ml): 3; score vs panel 15 TAP2 ([1]; Table 8, construct 200 μg/ml): 5

Reference: patent publication US10919941B2, “Functional lipid constructs” (KODE BIOTECH LIMITED, priority 2007, dated 2021)
